Reference: the supplement of paper PMC10307832

What follows are cell lines tested with CC(C)C[C@@H](C(=O)N[C@H](C(=O)OC1CCCC1)c1ccccc1)[C@H](O)C(=O)NO [Tosedostat] + CS(=O)(=O)CCNCc1ccc(-c2ccc3ncnc(Nc4ccc(OCc5cccc(F)c5)c(Cl)c4)c3c2)o1 [Lapatinib] (partner 2 µM) (assay: relative viability (nuclei count vs DMSO), 5 days (fraction); higher = more cells survive). Details: first compound 0.02 µM.
Procedure, shortened: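 Relative viability divides the nuclei count in treated wells by that in vehicle wells. Lung cancer cell lines were seeded in 1536-well plates, dosed by pin tool the next day, and fixed and stained after 5 days in one step with final 0.05% Triton X-100, 1% formaldehyde and 1 ug/ml Hoechst. Dosing was a single drug or a fixed anchor-drug dose plus five library-drug doses (not always all listed) in √10 steps, and values are medians of duplicate plates imaged at 4×.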

Row | Cell Line | relative viability
1 | COR-L23 | 1.03
2 | COR-L 105 | 0.415
3 | LU99A | 1.02
4 | NCI-H460 | 1.13
5 | HOP-62 | 1.08
6 | HCC-44 | 1.04
7 | LXF-289 | 0.967
8 | BEN | 0.924
9 | HARA | 0.756
10 | HCC-78 | 0.647
11 | NCI-H647 | 1.17
12 | LCLC-97TM1 | 0.951
13 | NCI-H2126 | 0.705
14 | A-427 | 1.13
15 | NCI-H650 | 1.19
16 | RERF-LC-KJ | 0.824
17 | NCI-H1915 | 1.08

Row | Cell Line | relative viability
18 | NCI-H661 | 0.428
19 | NCI-H1975 | 0.835
20 | 201T | 1.05
21 | NCI-H2023 | 0.94
22 | HCC-827 | 0.185
23 | NCI-H322M | 0.665
24 | NCI-H1437 | 0.749
25 | PC-14 | 0.273
26 | CAL-12T | 0.545
27 | NCI-H1734 | 1.23
28 | EPLC-272H | 1.03
29 | NCI-H3122 | 1.09
30 | NCI-H2009 | 1.25
31 | NCI-H1563 | 1.03
32 | NCI-H520 | 0.815
33 | NCI-H1651 | 0.883
34 | NCI-H1993 | 0.904

Same assay, conditions: first compound 0.06325 µM

Row | Cell Line | relative viability
35 | COR-L23 | 0.946
36 | COR-L 105 | 0.412
37 | LU99A | 1.08
38 | NCI-H460 | 0.915
39 | HOP-62 | 0.935
40 | HCC-44 | 0.994
41 | LXF-289 | 0.883
42 | BEN | 0.936
43 | HARA | 0.797
44 | HCC-78 | 0.764
45 | NCI-H647 | 1.11
46 | NCI-H2126 | 0.754
47 | A-427 | 1.1
48 | NCI-H650 | 0.996
49 | RERF-LC-KJ | 0.908
50 | NCI-H1915 | 0.938
51 | NCI-H661 | 0.479

Row | Cell Line | relative viability
52 | NCI-H1975 | 0.966
53 | 201T | 1.06
54 | NCI-H2023 | 0.953
55 | HCC-827 | 0.196
56 | NCI-H322M | 0.577
57 | NCI-H1437 | 0.809
58 | PC-14 | 0.32
59 | CAL-12T | 0.7
60 | NCI-H1734 | 1.11
61 | EPLC-272H | 0.944
62 | NCI-H3122 | 0.99
63 | NCI-H2009 | 0.956
64 | NCI-H1563 | 1.03
65 | NCI-H520 | 0.984
66 | NCI-H1651 | 0.81
67 | NCI-H1993 | 0.997

Same assay, conditions: first compound 0.2 µM

Row | Cell Line | relative viability
68 | COR-L23 | 0.918
69 | COR-L 105 | 0.326
70 | LU99A | 0.76
71 | NCI-H460 | 1.07
72 | HOP-62 | 1.08
73 | HCC-44 | 0.94
74 | LXF-289 | 0.935
75 | BEN | 0.68
76 | HARA | 0.611
77 | HCC-78 | 0.684
78 | NCI-H647 | 1.07
79 | NCI-H2126 | 0.83
80 | A-427 | 1.01
81 | NCI-H650 | 0.608
82 | RERF-LC-KJ | 0.855
83 | NCI-H1915 | 0.947
84 | NCI-H661 | 0.449

Row | Cell Line | relative viability
85 | NCI-H1975 | 0.86
86 | 201T | 1.06
87 | NCI-H2023 | 0.795
88 | HCC-827 | 0.203
89 | NCI-H322M | 0.542
90 | NCI-H1437 | 0.744
91 | PC-14 | 0.348
92 | CAL-12T | 0.728
93 | NCI-H1734 | 0.997
94 | EPLC-272H | 0.637
95 | NCI-H3122 | 1.07
96 | NCI-H2009 | 1.03
97 | NCI-H1563 | 0.957
98 | NCI-H520 | 0.96
99 | NCI-H1651 | 0.77
100 | NCI-H1993 | 0.857

Same assay, conditions: first compound 0.6325 µM

Row | Cell Line | relative viability
101 | COR-L23 | 0.817
102 | COR-L 105 | 0.416
103 | LU99A | 0.813
104 | NCI-H460 | 0.921
105 | HOP-62 | 0.891
106 | HCC-44 | 0.937
107 | LXF-289 | 0.868
108 | BEN | 0.987
109 | HARA | 0.775
110 | HCC-78 | 0.841
111 | NCI-H647 | 0.926
112 | LCLC-97TM1 | 0.641
113 | NCI-H2126 | 0.76
114 | A-427 | 1.02
115 | NCI-H650 | 0.775
116 | RERF-LC-KJ | 0.821
117 | NCI-H1915 | 0.953

Row | Cell Line | relative viability
118 | NCI-H661 | 0.591
119 | NCI-H1975 | 0.703
120 | 201T | 1.09
121 | NCI-H2023 | 0.457
122 | HCC-827 | 0.189
123 | NCI-H322M | 0.55
124 | NCI-H1437 | 0.727
125 | PC-14 | 0.269
126 | CAL-12T | 0.669
127 | NCI-H1734 | 1.01
128 | EPLC-272H | 0.755
129 | NCI-H3122 | 1.07
130 | NCI-H2009 | 0.78
131 | NCI-H1563 | 0.956
132 | NCI-H520 | 0.923
133 | NCI-H1651 | 0.816
134 | NCI-H1993 | 0.87

Same assay, conditions: first compound 2 µM

Row | Cell Line | relative viability
135 | COR-L23 | 0.99
136 | COR-L 105 | 0.358
137 | LU99A | 0.869
138 | NCI-H460 | 0.999
139 | HOP-62 | 0.983
140 | HCC-44 | 0.678
141 | LXF-289 | 0.92
142 | BEN | 0.702
143 | HARA | 0.574
144 | HCC-78 | 0.746
145 | NCI-H647 | 0.969
146 | LCLC-97TM1 | 0.766
147 | NCI-H2126 | 0.674
148 | A-427 | 0.995
149 | NCI-H650 | 0.489
150 | RERF-LC-KJ | 0.879
151 | NCI-H1915 | 0.956
152 | NCI-H661 | 0.425
153 | NCI-H1975 | 0.751
154 | 201T | 1.13
155 | NCI-H2023 | 0.753
156 | HCC-827 | 0.159
157 | NCI-H322M | 0.446
158 | NCI-H1437 | 0.661
159 | PC-14 | 0.371
